Data as given in the supplement of paper PMC13207355.

How the values were obtained:
Settings in all cases: exposure time: 72 h
E31 [1] = patient-derived glioblastoma stem cells of proneural subtype; experiment: phenotypic distance (Euclidean, principal components) from DMSO controls (arbitrary units); higher = stronger morphological change
E28 [2] = patient-derived glioblastoma stem cells of classical subtype; experiment: as above
E57 [3] = patient-derived glioblastoma stem cells of mesenchymal subtype; experiment: as above
E13 [4] = patient-derived glioblastoma stem cells of classical subtype; experiment: as above
E21 [5] = patient-derived glioblastoma stem cells of mesenchymal subtype; experiment: as above
E34 [6] = patient-derived glioblastoma stem cells of proneural subtype; experiment: as above
FT3469 [7] = normal neural stem cell line; experiment: as above
E31 [8] = experiment: surviving fraction (nuclei count normalised to DMSO); higher = more cells surviving (less toxic)
E28 [9] = experiment: as above
E57 [10] = experiment: as above
E13 [11] = experiment: as above
E21 [12] = experiment: as above
E34 [13] = experiment: as above
FT3469 [14] = experiment: as above
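Wherever phenotypic distance (Euclidean, principal components) from DMSO controls is given: cell Painting imaging in 384-well plates, CellProfiler features reduced to at least 20 principal components, Euclidean distance versus same-plate DMSO vehicle wells (0.1% v/v), median over six images per well.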
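Wherever surviving fraction (nuclei count normalised to DMSO) is given: nuclei counted by high-content imaging of Hoechst-stained cells in laminin-coated 384-well plates, relative to 0.1% DMSO vehicle wells, with staurosporine as cell-death control.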

For `CN(c1nccc(=O)[nH]1)C1CCN(c2nc3ccccc3n2Cc2ccc(F)cc2)CC1` [Mizolastine], the phenotypic distance (E31 [1]; 4.1 nM) was 0.567, the phenotypic distance (E31 [1]; 12.3 nM) was 0.802 and the phenotypic distance (E31 [1]; 37 nM) was 1.44. For the same molecule, the phenotypic distance (E31 [1]; 111.1 nM) was 0.455, the phenotypic distance (E31 [1]; 333.3 nM) was 0.814 and the phenotypic distance (E31 [1]; 1000 nM) was 0.555. For the same molecule, the phenotypic distance (E31 [1]; 3000 nM) was 0.652, the phenotypic distance (E28 [2]; 4.1 nM) was 0.853 and the phenotypic distance (E28 [2]; 12.3 nM) was 5.48. For the same molecule, the phenotypic distance (E28 [2]; 37 nM) was 0.52, the phenotypic distance (E28 [2]; 111.1 nM) was 0.84 and the phenotypic distance (E28 [2]; 333.3 nM) was 0.698. The phenotypic distance (E28 [2]; 1000 nM) was 0.693, the phenotypic distance (E28 [2]; 3000 nM) was 0.97 and the phenotypic distance (E57 [3]; 4.1 nM) was 0.544. It also gave a phenotypic distance (E57 [3]; 12.3 nM) of 0.715, a phenotypic distance (E57 [3]; 37 nM) of 3.66 and a phenotypic distance (E57 [3]; 111.1 nM) of 0.766. It also gave a phenotypic distance (E57 [3]; 333.3 nM) of 0.54, a phenotypic distance (E57 [3]; 1000 nM) of 0.624 and a phenotypic distance (E57 [3]; 3000 nM) of 0.531. It also gave a phenotypic distance (E13 [4]; 4.1 nM) of 0.868, a phenotypic distance (E13 [4]; 12.3 nM) of 0.459 and a phenotypic distance (E13 [4]; 37 nM) of 0.939. The phenotypic distance (E13 [4]; 111.1 nM) was 0.783, the phenotypic distance (E13 [4]; 333.3 nM) was 0.597 and the phenotypic distance (E13 [4]; 1000 nM) was 0.555. It also gave a phenotypic distance (E13 [4]; 3000 nM) of 0.59, a phenotypic distance (E21 [5]; 4.1 nM) of 0.704 and a phenotypic distance (E21 [5]; 12.3 nM) of 0.468. It also gave a phenotypic distance (E21 [5]; 37 nM) of 0.444, a phenotypic distance (E21 [5]; 111.1 nM) of 0.765 and a phenotypic distance (E21 [5]; 333.3 nM) of 0.434. For the same molecule, the phenotypic distance (E21 [5]; 1000 nM) was 0.621, the phenotypic distance (E21 [5]; 3000 nM) was 0.543 and the phenotypic distance (E34 [6]; 4.1 nM) was 0.476. The phenotypic distance (E34 [6]; 12.3 nM) was 1.2, the phenotypic distance (E34 [6]; 37 nM) was 1.86 and the phenotypic distance (E34 [6]; 111.1 nM) was 0.66. For the same molecule, the phenotypic distance (E34 [6]; 333.3 nM) was 0.677, the phenotypic distance (E34 [6]; 1000 nM) was 0.599 and the phenotypic distance (E34 [6]; 3000 nM) was 0.698. The phenotypic distance (FT3469 [7]; 4.1 nM) was 0.538, the phenotypic distance (FT3469 [7]; 12.3 nM) was 1.14 and the phenotypic distance (FT3469 [7]; 37 nM) was 0.386. It also gave a phenotypic distance (FT3469 [7]; 111.1 nM) of 0.797, a phenotypic distance (FT3469 [7]; 333.3 nM) of 0.453 and a phenotypic distance (FT3469 [7]; 1000 nM) of 0.544. For the same molecule, the phenotypic distance (FT3469 [7]; 3000 nM) was 0.613, the surviving fraction (E31 [8]; 4.1 nM) was 1.01 and the surviving fraction (E31 [8]; 12.3 nM) was 1.16. For the same molecule, the surviving fraction (E31 [8]; 37 nM) was 0.825, the surviving fraction (E31 [8]; 111.1 nM) was 1.19 and the surviving fraction (E31 [8]; 333.3 nM) was 0.944. For the same molecule, the surviving fraction (E31 [8]; 1000 nM) was 1.18, the surviving fraction (E31 [8]; 3000 nM) was 0.875 and the surviving fraction (E28 [9]; 4.1 nM) was 1.08. It also gave a surviving fraction (E28 [9]; 12.3 nM) of 1.1, a surviving fraction (E28 [9]; 37 nM) of 1.1 and a surviving fraction (E28 [9]; 111.1 nM) of 1.19. The surviving fraction (E28 [9]; 333.3 nM) was 1.06, the surviving fraction (E28 [9]; 1000 nM) was 1.13 and the surviving fraction (E28 [9]; 3000 nM) was 0.972. For the same molecule, the surviving fraction (E57 [10]; 4.1 nM) was 0.99, the surviving fraction (E57 [10]; 12.3 nM) was 1.02 and the surviving fraction (E57 [10]; 37 nM) was 1.06. It also gave a surviving fraction (E57 [10]; 111.1 nM) of 0.976, a surviving fraction (E57 [10]; 333.3 nM) of 1.05 and a surviving fraction (E57 [10]; 1000 nM) of 1.05. For the same molecule, the surviving fraction (E57 [10]; 3000 nM) was 1.06, the surviving fraction (E13 [11]; 4.1 nM) was 0.797 and the surviving fraction (E13 [11]; 12.3 nM) was 0.967. It also gave a surviving fraction (E13 [11]; 37 nM) of 0.849, a surviving fraction (E13 [11]; 111.1 nM) of 0.869 and a surviving fraction (E13 [11]; 333.3 nM) of 0.989. For the same molecule, the surviving fraction (E13 [11]; 1000 nM) was 0.896, the surviving fraction (E13 [11]; 3000 nM) was 0.956 and the surviving fraction (E21 [12]; 4.1 nM) was 1. For the same molecule, the surviving fraction (E21 [12]; 12.3 nM) was 1, the surviving fraction (E21 [12]; 37 nM) was 0.949 and the surviving fraction (E21 [12]; 111.1 nM) was 1.03. It also gave a surviving fraction (E21 [12]; 333.3 nM) of 1.03, a surviving fraction (E21 [12]; 1000 nM) of 1.01 and a surviving fraction (E21 [12]; 3000 nM) of 1.09. It also gave a surviving fraction (E34 [13]; 4.1 nM) of 1.16, a surviving fraction (E34 [13]; 12.3 nM) of 0.983 and a surviving fraction (E34 [13]; 37 nM) of 1.01. It also gave a surviving fraction (E34 [13]; 111.1 nM) of 0.939, a surviving fraction (E34 [13]; 333.3 nM) of 1.04 and a surviving fraction (E34 [13]; 1000 nM) of 1.1. The surviving fraction (E34 [13]; 3000 nM) was 0.941, the surviving fraction (FT3469 [14]; 4.1 nM) was 1.15 and the surviving fraction (FT3469 [14]; 12.3 nM) was 0.975. For the same molecule, the surviving fraction (FT3469 [14]; 37 nM) was 0.987, the surviving fraction (FT3469 [14]; 111.1 nM) was 1.06 and the surviving fraction (FT3469 [14]; 333.3 nM) was 1.03. The surviving fraction (FT3469 [14]; 1000 nM) was 0.94 and the surviving fraction (FT3469 [14]; 3000 nM) was 1.15.
